Each block holds one compound with its values, some of them ahead of it.
Columns and labels:
[1] = Metabolic stability in rat liver microsomes assessed as half life at 150 uM measured after 60 mins in presence of NADPH by LC-MS/MS analysis; assay type: ADME, Microsome
[2] = Metabolic stability in dog liver microsomes assessed as intrinsic clearance at 150 uM measured after 60 mins in presence of NADPH by LC-MS/MS analysis; assay type: ADME, Canis lupus familiaris, Microsome; settings: read-out: CLH
[3] = Half life in Sprague-Dawley rat at 1 mg/kg,iv measured upto 24 hrs by LC-MS/MS analysis; assay type: ADME, organism-based; settings: in vivo
ASPC1 [4] = experiment: Induction of apoptosis in human ASPC1 cells harboring […] assessed as late apoptotic cells at 50 uM incubated for 24 hrs by annexin V and propidium iodide staining based flow cytometry analysis (reference value: 6.96%); assay type: functional
AGS [5] = experiment: Induction of apoptosis in human AGS cells harboring […] assessed as early apoptotic cells at 25 uM incubated for 24 hrs by annexin V and propidium iodide staining based flow cytometry analysis (reference value: 4.05%); assay type: functional
A549 = experiment: Antiproliferative activity against human A549 cells harboring […] assessed as inhibition of cell growth incubated for 5 days by crystal violet staining analysis; assay type: functional, cell-based; settings: Homo sapiens, A549, 120 h
AGS [6] = experiment: Antiproliferative activity against human AGS cells harboring […] assessed as inhibition of cell growth incubated for 5 days by crystal violet staining analysis; assay type: functional, cell-based; settings: Homo sapiens, AGS, 120 h
[7] = Metabolic stability in dog liver microsomes assessed as half life at 150 uM measured after 60 mins in presence of NADPH by LC-MS/MS analysis; assay type: ADME, Canis lupus familiaris, Microsome
AGS [8] = experiment: Induction of apoptosis in human AGS cells harboring […] assessed as early apoptotic cells at 50 uM incubated for 24 hrs by annexin V and propidium iodide staining based flow cytometry analysis (reference value: 4.05%); assay type: functional
[9] = Toxicity in mouse xenografted with human ASPC1 cells assessed as serum ratio of AST/ALT at 20 mg/kg,ip administrated twice daily for 20 consecutive days (reference value: 6.5 +/- 1.7); assay type: organism-based; settings: in vivo
ASPC1 [10] = experiment: Antiproliferative activity against human ASPC1 cells harboring […] assessed as inhibition of cell growth incubated for 5 days by crystal violet staining analysis; assay type: functional, cell-based; settings: Homo sapiens, ASPC1, 120 h
ASPC1 [11] = experiment: Antitumor activity against human ASPC1 cells xenografted in mouse assessed as inhibition of tumor growth at 10 mg/kg,ip administrated twice daily for 20 consecutive days relative to control; assay type: functional; settings: read-out: TGI
[12] = Toxicity in mouse xenografted with human ASPC1 cells assessed as change in spleen morphology at 20 mg/kg,ip administrated twice daily for 20 consecutive days by Hematoxylin-eosin staining based microscopic analysis; assay type: organism-based; settings: in vivo
ASPC1 [13] = experiment: Induction of apoptosis in human ASPC1 cells harboring […] assessed as late apoptotic cells at 25 uM incubated for 24 hrs by annexin V and propidium iodide staining based flow cytometry analysis (reference value: 6.96%); assay type: functional
[14] = Toxicity in mouse xenografted with human ASPC1 cells assessed as serum blood urea nitrogen level at 10 mg/kg,ip administrated twice daily for 20 consecutive days (reference value: 16.3 +/- 1.6 mmol/L); assay type: organism-based; settings: in vivo
[15] = Toxicity in mouse xenografted with human ASPC1 cells assessed as serum creatinine level at 10 mg/kg,ip administrated twice daily for 20 consecutive days (reference value: 28.2 +/- 2.1 umol/L); assay type: organism-based; settings: in vivo
ASPC1 [16] = experiment: Induction of apoptosis in human ASPC1 cells harboring […] assessed as early apoptotic cells at 25 uM incubated for 24 hrs by annexin V and propidium iodide staining based flow cytometry analysis (reference value: 5.22%); assay type: functional
[17] = AUC in Sprague-Dawley rat at 1 mg/kg,iv measured upto 24 hrs by LC-MS/MS analysis; assay type: ADME, organism-based; parameters: dose 1 mg/kg, time < 24 hrs, route iv; settings: in vivo
[18] = Toxicity in mouse xenografted with human ASPC1 cells assessed as change in body weight at 20 mg/kg,ip administrated twice daily for 20 consecutive days; assay type: organism-based; settings: in vivo
[19] = Toxicity in mouse xenografted with human ASPC1 cells assessed as serum creatinine level at 20 mg/kg,ip administrated twice daily for 20 consecutive days (reference value: 28.2 +/- 2.1 umol/L); assay type: organism-based; settings: in vivo
ASPC1 [20] = experiment: Induction of apoptosis in human ASPC1 cells harboring […] assessed as early apoptotic cells at 50 uM incubated for 24 hrs by annexin V and propidium iodide staining based flow cytometry analysis (reference value: 5.22%); assay type: functional
[21] = Toxicity in mouse xenografted with human ASPC1 cells assessed as change in body weight at 10 mg/kg,ip administrated twice daily for 20 consecutive days; assay type: organism-based; settings: in vivo
[22] = Half life in Sprague-Dawley rat at 3 mg/kg,po measured upto 24 hrs by LC-MS/MS analysis; assay type: ADME, organism-based; settings: in vivo
[23] = Toxicity in mouse xenografted with human ASPC1 cells assessed as change in liver morphology at 20 mg/kg,ip administrated twice daily for 20 consecutive days by Hematoxylin-eosin staining based microscopic analysis; assay type: organism-based; settings: in vivo
[24] = Toxicity in mouse xenografted with human ASPC1 cells assessed as change in lung morphology at 10 mg/kg,ip administrated twice daily for 20 consecutive days by Hematoxylin-eosin staining based microscopic analysis; assay type: organism-based; settings: in vivo
[25] = Metabolic stability in monkey liver microsomes assessed as half life at 150 uM measured after 60 mins in presence of NADPH by LC-MS/MS analysis; assay type: ADME, Macaca mulatta, Microsome; settings: rhesus monkey
GTPase KRas = GTPase KRas (Homo sapiens, UniProt P01116); experiment: Inhibition of recombinant human GTP-bound KRAS wild type (1 to 169 residues) incubated for 1 hr by HTRF assay
[26] = Toxicity in mouse xenografted with human ASPC1 cells assessed as serum blood urea nitrogen level at 20 mg/kg,ip administrated twice daily for 20 consecutive days (reference value: 16.3 +/- 1.6 mmol/L); assay type: organism-based; settings: in vivo
ASPC1 [27] = experiment: Antitumor activity against human ASPC1 cells xenografted in mouse assessed as inhibition of tumor growth at 20 mg/kg,ip administrated twice daily for 20 consecutive days relative to control; assay type: functional; settings: read-out: TGI
[28] = Toxicity in mouse xenografted with human ASPC1 cells assessed as change in heart morphology at 20 mg/kg,ip administrated twice daily for 20 consecutive days by Hematoxylin-eosin staining based microscopic analysis; assay type: organism-based; settings: in vivo
[29] = Toxicity in mouse xenografted with human ASPC1 cells assessed as change in kidney morphology at 10 mg/kg,ip administrated twice daily for 20 consecutive days by Hematoxylin-eosin staining based microscopic analysis; assay type: organism-based; settings: in vivo
[30] = AUC in Sprague-Dawley rat at 3 mg/kg,po measured upto 24 hrs by LC-MS/MS analysis; assay type: ADME, organism-based; parameters: time < 24 hrs, dose 3 mg/kg, route po; settings: in vivo
AGS [31] = experiment: Induction of apoptosis in human AGS cells harboring […] assessed as late apoptotic cells at 50 uM incubated for 24 hrs by annexin V and propidium iodide staining based flow cytometry analysis (reference value: 7.74%); assay type: functional
[32] = Toxicity in mouse xenografted with human ASPC1 cells assessed as change in liver morphology at 10 mg/kg,ip administrated twice daily for 20 consecutive days by Hematoxylin-eosin staining based microscopic analysis; assay type: organism-based; settings: in vivo
[33] = Clearance in Sprague-Dawley rat at 1 mg/kg,iv measured upto 24 hrs by LC-MS/MS analysis; assay type: ADME, organism-based; settings: in vivo
[34] = Toxicity in mouse xenografted with human ASPC1 cells assessed as serum ratio of AST/ALT at 10 mg/kg,ip administrated twice daily for 20 consecutive days (reference value: 6.5 +/- 1.7); assay type: organism-based; settings: in vivo
[35] = Metabolic stability in rat liver microsomes assessed as intrinsic clearance at 150 uM measured after 60 mins in presence of NADPH by LC-MS/MS analysis; assay type: ADME, Microsome; settings: read-out: CLH
[36] = Toxicity in mouse xenografted with human ASPC1 cells assessed as change in heart morphology at 10 mg/kg,ip administrated twice daily for 20 consecutive days by Hematoxylin-eosin staining based microscopic analysis; assay type: organism-based; settings: in vivo
[37] = Toxicity in mouse xenografted with human ASPC1 cells assessed as change in lung morphology at 20 mg/kg,ip administrated twice daily for 20 consecutive days by Hematoxylin-eosin staining based microscopic analysis; assay type: organism-based; settings: in vivo
[38] = Toxicity in mouse xenografted with human ASPC1 cells assessed as change in kidney morphology at 20 mg/kg,ip administrated twice daily for 20 consecutive days by Hematoxylin-eosin staining based microscopic analysis; assay type: organism-based; settings: in vivo
[39] = Inhibition of recombinant human His6-tagged KRAS4B G12D mutant incubated for 1 hr by HTRF assay
[40] = Metabolic stability in monkey liver microsomes assessed as intrinsic clearance at 150 uM measured after 60 mins in presence of NADPH by LC-MS/MS analysis; assay type: ADME, Macaca mulatta, Microsome; settings: rhesus monkey, read-out: CLH
NCI-H1299 = experiment: Antiproliferative activity against human NCI-H1299 cells harboring KRAS wild type assessed as inhibition of cell growth incubated for 5 days by crystal violet staining analysis; assay type: functional, cell-based; settings: NCI-H1299, 120 h
AGS [41] = experiment: Induction of apoptosis in human AGS cells harboring […] assessed as late apoptotic cells at 25 uM incubated for 24 hrs by annexin V and propidium iodide staining based flow cytometry analysis (reference value: 7.74%); assay type: functional
[42] = Toxicity in mouse xenografted with human ASPC1 cells assessed as change in spleen morphology at 10 mg/kg,ip administrated twice daily for 20 consecutive days by Hematoxylin-eosin staining based microscopic analysis; assay type: organism-based; settings: in vivo

- half-life at 150 µM [1]: 92.4 min
- microsomal CLint at 150 µM [2]: 16.2 µL/min/mg
- half-life [3]: 660 min
- IC50 (A549): 1190 nM
- IC50 (AGS [6]): 0.9 nM
- half-life at 150 µM [7]: 85.6 min
- IC50 (ASPC1 [10]): 1.6 nM
- AUC at 24 h [17]: 102 ng·h/mL
- half-life [22]: 22.9 min
- half-life at 150 µM [25]: 30.5 min
- IC50 (GTPase KRas): 16.7 nM
- AUC at 24 h [30]: 2.89 ng·h/mL
- clearance [33]: 168 mL/min/kg
- microsomal CLint at 150 µM [35]: 15 µL/min/mg
- IC50 [39]: 1.19 nM
- microsomal CLint at 150 µM [40]: 45.4 µL/min/mg
- IC50 (NCI-H1299): 1850 nM
SMILES: [2H]C([2H])(Oc1nc(N2C[C@H]3CC[C@@H](C2)N3)c2cnc(-c3cc(N)cc4ccc(F)c(C#C)c34)c(F)c2n1)C12CCCN1CC(=C(F)F)C2 (stereo partly drawn)
- Activity (ASPC1 [4]): 11.8%
- Activity (AGS [5]): 8.84%
- Activity (AGS [8]): 9.08%
- Ratio [9]: 4.5
- inhibition in vivo at 10 mg/kg (ASPC1 [11]): 53.3%
- Activity [12]: Non-Toxic
- Activity (ASPC1 [13]): 10.8%
- Activity [14]: 19.2 mmol/L
- Activity [15]: 29.7 µmol/L
- Activity (ASPC1 [16]): 9.56%
- Activity [18]: Non-Toxic
- Activity [19]: 23.5 µmol/L
- Activity (ASPC1 [20]): 12.4%
- Activity [21]: Non-Toxic
- Activity [23]: Non-Toxic
- Activity [24]: Non-Toxic
- Activity [26]: 16.7 mmol/L
- inhibition in vivo at 20 mg/kg (ASPC1 [27]): 71.3%
- Activity [28]: Non-Toxic
- Activity [29]: Non-Toxic
- Activity (AGS [31]): 13.7%
- Activity [32]: Non-Toxic
- Ratio [34]: 4.5
- Activity [36]: Non-Toxic
- Activity [37]: Non-Toxic
- Activity [38]: Non-Toxic
- Activity (AGS [41]): 11%
- Activity [42]: Non-Toxic

- half-life at 150 µM [1]: 83.5 min
- microsomal CLint at 150 µM [2]: 51.8 µL/min/mg
- half-life [3]: 18.4 min
- IC50 (A549): 332 nM
- IC50 (AGS [6]): 0.3 nM
- half-life at 150 µM [7]: 26.8 min
- IC50 (ASPC1 [10]): 0.6 nM
- AUC at 24 h [17]: 37.2 ng·h/mL
- half-life at 150 µM [25]: 24.3 min
- IC50 (GTPase KRas): 10.2 nM
- clearance [33]: 490 mL/min/kg
- microsomal CLint at 150 µM [35]: 16.6 µL/min/mg
- IC50 [39]: 0.48 nM
- microsomal CLint at 150 µM [40]: 57 µL/min/mg
- IC50 (NCI-H1299): 1940 nM
SMILES: [2H]C([2H])(Oc1nc(N2C[C@H]3CC[C@@H](C2)N3)c2cnc(-c3cc(O)cc4ccc(F)c(C#C)c34)c(F)c2n1)C12CCCN1CC(=C(F)F)C2 (stereo partly drawn)
- Activity (ASPC1 [4]): 18.7%
- Activity (AGS [5]): 11.4%
- Activity (AGS [8]): 13.1%
- Ratio [9]: 5.7
- inhibition in vivo at 10 mg/kg (ASPC1 [11]): 55.3%
- Activity [12]: Non-Toxic
- Activity (ASPC1 [13]): 10%
- Activity [14]: 13.5 mmol/L
- Activity [15]: 25.9 µmol/L
- Activity (ASPC1 [16]): 9.17%
- Activity [18]: Non-Toxic
- Activity [19]: 22.2 µmol/L
- Activity (ASPC1 [20]): 11.5%
- Activity [21]: Non-Toxic
- Activity [23]: Non-Toxic
- Activity [24]: Non-Toxic
- Activity [26]: 14.1 mmol/L
- inhibition in vivo at 20 mg/kg (ASPC1 [27]): 73.4%
- Activity [28]: Non-Toxic
- Activity [29]: Non-Toxic
- Activity (AGS [31]): 14%
- Activity [32]: Non-Toxic
- Ratio [34]: 5
- Activity [36]: Non-Toxic
- Activity [37]: Non-Toxic
- Activity [38]: Non-Toxic
- Activity (AGS [41]): 9.76%
- Activity [42]: Non-Toxic
